Several values for one entry are separate records, joined by “and”; a condition that tells them apart may be missing. Equal values may be shown once.
Assays:
[1] = Separation of Nd/Pr/Tb/Dy mixture by precipitation using L5 and acetate (Example 22); type: physicochemical; settings: for solution after 20 hrs / solution after 2 days: acetate buffer pH=5.8; for solution after 20 hrs composition / solution after 2 days composition: percent molar
Procedure: A reaction mixture was prepared analogously to Example 21), with the differences being the use of sodium acetate buffer pH=5.8 in place of MOPS pH=7, an additional aliquot taken for analysis after 2 days, and the lack of ICP-OES analysis on the precipitated portions of the solution — that is, only the supernatants were analysed. Otherwise, the reaction was run analogously to Example 21). The percent molar composition of each is also provided, showing the improved selectivity in precipitation under these conditions, compared to Example 21).

[2] = Separation of Nd/Pr/Tb/Dy mixture by repeated precipitation using L5 and α-HIBA (Example 24); type: physicochemical
Procedure: The reaction mixture was prepared by pipetting the following aqueous stock solutions into a 20 mL glass vial: • 1. 476 μL 246 mM aqueous chelator L5 • 2. 606 μL 175.5 mM aqueous LnCl3 solution (from a stock solution containing a mixture of Ln =Nd, Pr, Tb, and Dy, in a ratio of 3.3:1:1:1, Nd:Pr:Tb:Dy) • 3. 41.6 μL 2560 mM aqueous α-HIBA pH=6.5 • 4. 4103 μL water • 5. 1733 μL 3.0 M MOPS pH=7
The total reaction volume was 7.0 mL. Three identical reaction mixtures were prepared. A PTFE-coated stir bar was added to each vial; the vials were capped and stirred on a magnetic stirrer at room temperature. After 18 hours, a 200 μL aliquot of the reaction mixture was taken from each vial. This was centrifuged in a 2 mL plastic Eppendorf centrifuge tube, and the supernatant was carefully pipetted from the sample and transferred to a new set of tubes. The precipitate was dissolved by addition of 200 μL 1 M HCl, and the absolute concentration of each of the four lanthanides (Nd, Pr, Tb, and Dy) in each sample of the supernatant and precipitate was determined by ICP-OES. The remaining reaction mixtures from each vial were individually centrifuged in 15 mL plastic centrifuge tubes to separate the precipitate from the supernatant. The supernatant was discarded. Each precipitate was dissolved by addition of 2 mL 1 M HCl and heating to 80° C. for 1 hour. After dissolution, the acidic solutions were transferred to clean 20 mL glass vials with one PTFE-coated magnetic stir bar each. To each solution was added, in order: 2037 μL water, 40.4 μL 2560 mM aqueous α-HIBA pH =6.5, 1723 μL 3 M aqueous MOPS pH=7, and 1000 μL 2 M NaOH. These solutions were capped and stirred on a magnetic stirrer at room temperature. After 18 hours, a 200 μL aliquot of the reaction mixture was again taken from each and treated for ICP-OES analysis as before. Once again, the remaining reaction mixtures from each vial were individually centrifuged in 15 mL plastic centrifuge tubes to separate the precipitate from the supernatant. The supernatant was discarded. Each precipitate was dissolved by addition of 1 mL 1M HCl and heating to 80° C. for 1 hour. After dissolution, the acidic solutions were transferred to clean 20 mL glass vials with one PTFE-coated magnetic stir bar each. To each solution was added, in order: 3376 μL water, 51.6 μL 2560 mM aqueous α-HIBA pH =6.5, 1672 μL 3 M aqueous MOPS pH=7, and 500 μL 2 M NaOH. These solutions were capped and stirred on a magnetic stirrer at room temperature. After 18 hours, a final 200 μL aliquot of the reaction mixture was again taken from each vial and treated for ICP-OES analysis as before.

[3] = series A (first precipitation, 18 hours), individual samples A1-A3
[4] = series B (repeated precipitation), individual samples B1-B3
[5] = series C (repeated precipitation), individual samples C1-C3

O=C(O)CN1CCN(CC(=O)O)CCN(Cc2cccc3ccccc23)CCN(CC(=O)O)CC1 [L5, 2,2′,2″-(10-(naphthalene-1-ylmethyl)-1,4,7,10-tetraazacyklododekane-1,4,7-triyl)triacetic acid]
solution after 20 hrs ([1]; Ln=Dy): 5.41 mM
solution after 2 days ([1]; Ln=Dy): 5.00 mM
solution after 20 hrs composition ([1]; Ln=Dy): 16.4%
solution after 2 days composition ([1]; Ln=Dy): 28.1%
solution after 20 hrs ([1]; Ln=Nd): 17.01 mM
solution after 2 days ([1]; Ln=Nd): 6.42 mM
solution after 20 hrs composition ([1]; Ln=Nd): 51.5%
solution after 2 days composition ([1]; Ln=Nd): 36.1%
solution after 20 hrs ([1]; Ln=Pr): 4.78 mM
solution after 2 days ([1]; Ln=Pr): 1.57 mM
solution after 20 hrs composition ([1]; Ln=Pr): 14.5%
solution after 2 days composition ([1]; Ln=Pr): 8.8%
solution after 20 hrs ([1]; Ln=Tb): 5.84 mM
solution after 2 days ([1]; Ln=Tb): 4.77 mM
solution after 20 hrs composition ([1]; Ln=Tb): 17.7%
solution after 2 days composition ([1]; Ln=Tb): 26.9%
avg composition of precipitate, Dy ([2]; series A): 6.3%
avg composition of precipitate, Nd ([2]; series A): 67.2%
avg composition of precipitate, Pr ([2]; series A): 18.2%
avg composition of precipitate, Tb ([2]; series A): 8.2%
avg composition of supernatant, Dy ([2]; series A): 43.8%
avg composition of supernatant, Nd ([2]; series A): 21.4%
avg composition of supernatant, Pr ([2]; series A): 3.2%
avg composition of supernatant, Tb ([2]; series A): 31.6%
precipitate concentration Dy [2, 3]: 0.81 mM and 0.82 mM (2×)
precipitate concentration Nd [2, 3]: 8.82 mM and 8.69 mM and 8.55 mM
precipitate concentration Pr [2, 3]: 2.39 mM and 2.35 mM and 2.32 mM
precipitate concentration Tb [2, 3]: 1.05 mM and 1.07 mM and 1.06 mM
supernatant concentration Dy [2, 3]: 1.69 mM and 1.65 mM and 1.68 mM
supernatant concentration Nd [2, 3]: 0.85 mM and 0.90 mM and 0.70 mM
supernatant concentration Pr [2, 3]: 0.12 mM and 0.15 mM and 0.09 mM
supernatant concentration Tb [2, 3]: 1.23 mM and 1.19 mM and 1.20 mM
precipitate concentration Dy, avg ([2]; series A avg): 0.81 mM
precipitate concentration Nd, avg ([2]; series A avg): 8.68 mM
precipitate concentration Pr, avg ([2]; series A avg): 2.35 mM
precipitate concentration Tb, avg ([2]; series A avg): 1.06 mM
supernatant concentration Dy, avg ([2]; series A avg): 1.67 mM
supernatant concentration Nd, avg ([2]; series A avg): 0.82 mM
supernatant concentration Pr, avg ([2]; series A avg): 0.12 mM
supernatant concentration Tb, avg ([2]; series A avg): 1.21 mM
avg composition of precipitate, Dy ([2]; series B): 2.0%
avg composition of precipitate, Nd ([2]; series B): 73.4%
avg composition of precipitate, Pr ([2]; series B): 20.6%
avg composition of precipitate, Tb ([2]; series B): 4.0%
avg composition of supernatant, Dy ([2]; series B): 28.7%
avg composition of supernatant, Nd ([2]; series B): 34.0%
avg composition of supernatant, Pr ([2]; series B): 3.1%
avg composition of supernatant, Tb ([2]; series B): 34.1%
precipitate concentration Dy [2, 4]: 0.20 mM and 0.21 mM and 0.22 mM
precipitate concentration Nd [2, 4]: 7.54 mM and 7.82 mM and 8.02 mM
precipitate concentration Pr [2, 4]: 2.11 mM and 2.20 mM and 2.24 mM
precipitate concentration Tb [2, 4]: 0.41 mM and 0.42 mM and 0.45 mM
supernatant concentration Dy [2, 4]: 0.50 mM and 0.52 mM and 0.54 mM
supernatant concentration Nd [2, 4]: 0.65 mM and 0.60 mM and 0.59 mM
supernatant concentration Pr [2, 4]: 0.06 mM and 0.05 mM (2×)
supernatant concentration Tb [2, 4]: 0.60 mM and 0.61 mM and 0.64 mM
precipitate concentration Dy, avg ([2]; series B avg): 0.21 mM
precipitate concentration Nd, avg ([2]; series B avg): 7.80 mM
precipitate concentration Pr, avg ([2]; series B avg): 2.18 mM
precipitate concentration Tb, avg ([2]; series B avg): 0.42 mM
supernatant concentration Dy, avg ([2]; series B avg): 0.52 mM
supernatant concentration Nd, avg ([2]; series B avg): 0.61 mM
supernatant concentration Pr, avg ([2]; series B avg): 0.06 mM
supernatant concentration Tb, avg ([2]; series B avg): 0.62 mM
avg composition of precipitate, Dy ([2]; series C): 0.5%
avg composition of precipitate, Nd ([2]; series C): 75.6%
avg composition of precipitate, Pr ([2]; series C): 22.1%
avg composition of precipitate, Tb ([2]; series C): 1.8%
avg composition of supernatant, Dy ([2]; series C): 10.4%
avg composition of supernatant, Nd ([2]; series C): 61.4%
avg composition of supernatant, Pr ([2]; series C): 6.5%
avg composition of supernatant, Tb ([2]; series C): 21.6%
precipitate concentration Dy [2, 5]: 0.03 mM and 0.04 mM (2×)
precipitate concentration Nd [2, 5]: 6.34 mM and 6.40 mM and 6.17 mM
precipitate concentration Pr [2, 5]: 1.85 mM and 1.87 mM and 1.80 mM
precipitate concentration Tb [2, 5]: 0.15 mM (2×) and 0.16 mM
supernatant concentration Dy [2, 5]: 0.12 mM (2×) and 0.13 mM
supernatant concentration Nd [2, 5]: 0.67 mM and 0.68 mM and 0.83 mM
supernatant concentration Pr [2, 5]: 0.07 mM (2×) and 0.10 mM
supernatant concentration Tb [2, 5]: 0.24 mM and 0.25 mM and 0.27 mM
precipitate concentration Dy, avg ([2]; series C avg): 0.04 mM
precipitate concentration Nd, avg ([2]; series C avg): 6.30 mM
precipitate concentration Pr, avg ([2]; series C avg): 1.84 mM
precipitate concentration Tb, avg ([2]; series C avg): 0.15 mM
supernatant concentration Dy, avg ([2]; series C avg): 0.12 mM
supernatant concentration Nd, avg ([2]; series C avg): 0.73 mM
supernatant concentration Pr, avg ([2]; series C avg): 0.08 mM
supernatant concentration Tb, avg ([2]; series C avg): 0.26 mM

From US20230356105A1, “TETRAAZADODECANE BASED CHELATING AGENTS FOR SEPARATION OF RARE EARTH ELEMENTS AND METHOD THEREFOR” (Ustav Organicke Chemie a Biochemie AV CR V.V.I., priority 2020, published 2023)
